Results taken from paper PMC10893172, “Identification of Triazolopyrimidinyl Scaffold SARS-CoV-2 Papain-Like Protease (PL^pro) Inhibitor” (Pharmaceutics, 2024).
Read-outs that look alike come from different tables or passages of the source.

Columns and labels:
[1] = target: SARS-CoV-2 papain-like protease (PL^pro) (Severe acute respiratory syndrome coronavirus 2, UniProt P0DTD1); test: biochemical
[2] = system: SARS-CoV and SARS-CoV-2 PL^pro protein; conditions: known PL^pro inhibitors, literature values; cited from earlier work
[3] = 0.2 µM PL^pro, 30 µM substrate, 30 min preincubation at 25 °C, endpoint fluorescence after 2 h, triplicate, read-out: IC50

| Compound | IC50 [2] | IC50 [1, 3] | further results |
| --- | --- | --- | --- |
| O=C(N/N=C/c1cccc(OC2CSC2)c1)c1ccccc1O [Hit 826] |  |  | IC50 [1]: 328 ± 33 µM |
| 5-Amino-2-methyl-N-[2-(1-naphthyl)ethyl]-benzamide [GRL0617] | 1.61 ± 0.09 µM |  |  |
| Cc1cc2nn(CC(=O)NCc3ccco3)c(=O)n2c(Nc2ccc(C)c(C)c2)n1 [Hit 372] |  | 82 ± 34 µM |  |
| Nc1nc2[nH]cnc2c(=S)[nH]1 [Tioguanin (6-TG)] | 72 ± 12 µM |  |  |
| C[C@H](c1cccc2ccccc12)N1CCC(C(=O)NCc2cccc(F)c2)CC1 [Hit 3K] | 0.15 ± 0.01 µM |  |  |
| Cc1ccc(C)c(NC(=O)Cn2nc3n(C)c(=O)c4c(c(-c5ccccc5)cn4C)n3c2=O)c1 [Hit 922] |  | 439 ± 43 µM |  |
| Cn1nccc1-c1cc(C(=O)NCc2ccc(S(C)(=O)=O)cn2)c(=O)n(-c2cccc(C(F)(F)F)c2)c1 [Hit 903] |  | 881 ± 41 µM |  |
